# Laboratory results as given in patent publication US8802597B2, “Herbicidal pyrimidines” (E I du Pont de Nemours and Company, priority 2003, dated 2014).
# Like-named read-outs stand apart in the source and are kept apart here.
# Key:
# Assay in all cases: Test C pre/postemergence
# Assay type in all cases: in vivo
# [1] = system: soybean (Glycine max); details: Glycine max, pre-emergence, Preemergence, scale 0 to 100, read-out: Plant response rating, Soybean
# Method in brief: (§1)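 Injury scored visually 12–14 days after application on 0–100 scale (100 = complete control), relative to controls. Compounds, formulated with surfactant in non-phytotoxic solvent, applied to soil at planting (pre) or to 1- to 4-leaf plants 2–18 cm tall (post) in greenhouse.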
# [2] = system: eastern black nightshade (Solanum ptycanthum); details: Solanum, pre-emergence, Preemergence, read-out: Plant response rating, Nightshade
# Method in brief: as §1
# [3] = system: common ragweed (Ambrosia elatior); details: Ambrosia artemisiifolia; for pest or weed control at 62 g/ha: 62 g ai/ha; for pest or weed control at 125 g/ha: 125 g ai/ha; for pest or weed control at 250 g/ha: 250 g ai/ha; for pest or weed control at 500 g/ha: 500 g ai/ha
# Method in brief: as §1
# [4] = system: yellow nutsedge (Cyperus esculentus); details: Cyperus; for pest or weed control at 62 g/ha: 62 g ai/ha; for pest or weed control at 125 g/ha: 125 g ai/ha; for pest or weed control at 250 g/ha: 250 g ai/ha; for pest or weed control at 500 g/ha: 500 g ai/ha
# Method in brief: as §1
# [5] = system: morningglory (Ipomoea coccinea); details: Ipomoea; for pest or weed control at 62 g/ha: 62 g ai/ha; for pest or weed control at 125 g/ha: 125 g ai/ha; for pest or weed control at 250 g/ha: 250 g ai/ha; for pest or weed control at 500 g/ha: 500 g ai/ha
# Method in brief: as §1
# [6] = system: bermudagrass (Cynodon dactylon); details: Cynodon dactylon; for pest or weed control at 62 g/ha: 62 g ai/ha; for pest or weed control at 125 g/ha: 125 g ai/ha; for pest or weed control at 125 g/ha / pest or weed control at 250 g/ha / pest or weed control at 500 g/ha: scale 0 to 100; for pest or weed control at 250 g/ha: 250 g ai/ha; for pest or weed control at 500 g/ha: 500 g ai/ha
# Method in brief: as §1
# [7] = system: Surinam grass (Brachiaria decumbens); details: Urochloa decumbens; for pest or weed control at 125 g/ha: 125 g ai/ha; for pest or weed control at 500 g/ha: 500 g ai/ha; for pest or weed control at 62 g/ha: 62 g ai/ha; for pest or weed control at 250 g/ha: 250 g ai/ha
# Method in brief: as §1
# [8] = post-emergence, Postemergence, scale 0 to 100 (0 no effect, 100 complete control), read-out: Ragweed plant response rating
# [9] = post-emergence, Postemergence, scale 0 to 100, read-out: Plant response rating, Ragweed
# [10] = pre-emergence, Preemergence, scale 0 to 100, read-out: Plant response rating, Ragweed
# [11] = post-emergence, Postemergence, scale 0 to 100 (0 no effect, 100 complete control), read-out: Nutsedge, Yellow plant response rating
# [12] = post-emergence, Postemergence, scale 0 to 100, read-out: Plant response rating, Nutsedge, Yellow
# [13] = pre-emergence, Preemergence, scale 0 to 100, read-out: Plant response rating, Nutsedge, Yellow
# [14] = post-emergence, Postemergence, scale 0 to 100 (0 no effect, 100 complete control), read-out: Morningglory plant response rating
# [15] = post-emergence, Postemergence, scale 0 to 100, read-out: Plant response rating, Morningglory
# [16] = pre-emergence, Preemergence, scale 0 to 100, read-out: Plant response rating, Morningglory
# [17] = post-emergence, Postemergence, read-out: Plant response rating, Bermudagrass
# [18] = pre-emergence, Preemergence, read-out: Plant response rating, Bermudagrass
# [19] = post-emergence, Postemergence, scale 0 to 100 (0 no effect, 100 complete control), read-out: Surinam Grass plant response rating
# [20] = post-emergence, Postemergence, scale 0 to 100, read-out: Plant response rating, Surinam Grass
# [21] = pre-emergence, Preemergence, scale 0 to 100, read-out: Plant response rating, Surinam Grass
smiles,measurement,setting,value
"CCOC(=O)c1nc(C2CC2)nc(N)c1Br [Compound 1, ethyl 6-amino-5-bromo-2-cyclopropyl-4-pyrimidinecarboxylate]",plant injury at 250 g/ha,[1]; 250 g ai/ha,100%
same,plant injury at 500 g/ha,[1]; 500 g ai/ha,100%
same,pest or weed control at 62 g/ha,"[2]; 62 g ai/ha, scale 0 to 100, 0 no effect, 100 complete control",100%
same,pest or weed control at 125 g/ha,"[2]; 125 g ai/ha, scale 0 to 100",100%
same,pest or weed control at 250 g/ha,"[2]; 250 g ai/ha, scale 0 to 100",100%
same,pest or weed control at 500 g/ha,"[2]; 500 g ai/ha, scale 0 to 100",100%
same,pest or weed control at 62 g/ha,[3]; [8],100%
same,pest or weed control at 125 g/ha,[3]; [8],100%
same,pest or weed control at 250 g/ha,[3]; [9],100%
same,pest or weed control at 500 g/ha,[3]; [9],100%
same,pest or weed control at 62 g/ha,"[3]; pre-emergence, Preemergence, scale 0 to 100, 0 no effect, 100 complete control, read-out: Plant response rating, Ragweed",95%
same,pest or weed control at 125 g/ha,[3]; [10],100%
same,pest or weed control at 250 g/ha,[3]; [10],100%
same,pest or weed control at 500 g/ha,[3]; [10],100%
same,pest or weed control at 62 g/ha,[4]; [11],0%
same,pest or weed control at 125 g/ha,[4]; [11],0%
same,pest or weed control at 250 g/ha,[4]; [12],5%
same,pest or weed control at 500 g/ha,[4]; [12],5%
same,pest or weed control at 62 g/ha,"[4]; pre-emergence, Preemergence, scale 0 to 100, 0 no effect, 100 complete control, read-out: Plant response rating, Nutsedge, Yellow",0%
same,pest or weed control at 125 g/ha,[4]; [13],0%
same,pest or weed control at 250 g/ha,[4]; [13],50%
same,pest or weed control at 500 g/ha,[4]; [13],50%
same,pest or weed control at 62 g/ha,[5]; [14],100%
same,pest or weed control at 125 g/ha,[5]; [14],100%
same,pest or weed control at 250 g/ha,[5]; [15],100%
same,pest or weed control at 500 g/ha,[5]; [15],100%
same,pest or weed control at 62 g/ha,"[5]; pre-emergence, Preemergence, scale 0 to 100, 0 no effect, 100 complete control, read-out: Plant response rating, Morningglory",90%
same,pest or weed control at 125 g/ha,[5]; [16],100%
same,pest or weed control at 250 g/ha,[5]; [16],100%
same,pest or weed control at 500 g/ha,[5]; [16],100%
same,pest or weed control at 62 g/ha,"[6]; post-emergence, Postemergence, scale 0 to 100 (0 no effect, 100 complete control), read-out: Bermudagrass plant response rating",70%
same,pest or weed control at 125 g/ha,[6]; [17],90%
same,pest or weed control at 250 g/ha,[6]; [17],90%
same,pest or weed control at 500 g/ha,[6]; [17],90%
same,pest or weed control at 62 g/ha,"[6]; pre-emergence, Preemergence, scale 0 to 100, 0 no effect, 100 complete control, read-out: Plant response rating, Bermudagrass",0%
same,pest or weed control at 125 g/ha,[6]; [18],50%
same,pest or weed control at 250 g/ha,[6]; [18],70%
same,pest or weed control at 500 g/ha,[6]; [18],90%
same,pest or weed control at 125 g/ha,[7]; [19],90%
same,pest or weed control at 500 g/ha,[7]; [20],95%
same,pest or weed control at 62 g/ha,[7]; [19],90%
same,pest or weed control at 250 g/ha,[7]; [20],90%
same,pest or weed control at 62 g/ha,"[7]; pre-emergence, Preemergence, scale 0 to 100, 0 no effect, 100 complete control, read-out: Plant response rating, Surinam Grass",0%
same,pest or weed control at 125 g/ha,[7]; [21],35%
same,pest or weed control at 250 g/ha,[7]; [21],90%
same,pest or weed control at 500 g/ha,[7]; [21],90%
